The source of these data is US9029502B2, “Inhibitors of the epidermal growth factor receptor-heat shock protein 90 binding interaction” (priority 2010, dated 2015).

Ends that are not written are not given here. Peptide text beside a SMILES is read from it. * marks the point of attachment. Biotin = O=C1N[C@H]2[C@H](CS[C@H]2CCCCC(=O)*)N1

One series deals with C57BL/6 mice. Description: Safety in immune-competent C57BL/6 mice. Conditions: intraperitoneal, 10 and 30 mg/kg; for histological alterations in evaluated organs: 3 days post-injection. Format: in vivo. The procedure: Mice were dosed by intraperitoneal injection with 10 and 30 mg/kg of Disruptin, and brain, lung, liver, heart, kidneys, spleen, stomach, small intestine, mesenteric lymph nodes, cecum, colon, pancreas, ovaries, bone marrow, and eyes were evaluated 3 days post-injection.

The test system of series [1] is UMSCC1 xenografts. Nature of the series: Peptide internalization assay in UMSCC1 xenografts. Format: in vivo. Conditions: 8 mg/kg, i.p., nude mice with UMSCC1 xenografts. The procedure: Delivery of the peptide to the UMSCC1 xenografts was assessed after injection of peptides (8 mg/kg, i.p.), 3 days later the tumors were removed, cryosections were immunostained for EGFR, and the internalized biotinylated peptide was visualized by Streptavidin Alexa Fluor […] reagent.
The UMSCC1 xenografts were cryopreserved in OCT (Electron Microscopy Sciences). Five μm sections were cut from tissues prepared on days 1 and 3 after peptide treatment. Sections were fixed in cold methanol for 20 min and then were blocked with 1% Bovine Serum Albumin (BSA). The sections were incubated overnight with anti-EGFR antibody (Santa Cruz). After washing, the sections were incubated with anti-rabbit Alexa Fluor 488 (Molecular Probes) and Streptavidin conjugated Alexa Fluor 594 (Molecular Probes). Coverslips were mounted with one drop of Prolong Gold anti-fade reagent with DAPI (4,6-diamidino-2-phenylindole; Molecular Probes) to visualize the nuclei. Fluorescence images were acquired using a DP70 camera fitted on an Olympus 1X-71 microscope.

The test system of series [2] is UMSCC1 xenografts. Nature of the series: In vivo tumor growth study, UMSCC1 xenografts. On the set-up: species or system mice. The procedure:
(a) To determine if EGFR level was affected in the UMSCC1 xenograft tumor, mice were injected with either DMSO, specific, or non-specific biotinylated peptide (8 mg/kg) intraperitoneally. Three weeks after the injection, tumors (white arrow) along with some adjacent normal tissue (yellow arrow) were harvested. Immunostaining was performed for EGFR and HSP90. HSP90 levels were not affected by either treatment either in tumor or in the adjacent skin tissue. EGFR expression was reduced in the tumor treated with specific peptide relative to normal adjacent skin cells. (b) The effect on tumor growth was also assessed after treatment with two injections separated by 3 days. Tumor volume was recorded every other day during this period, (c) Time to tumor volume doubling was plotted for each treatment condition using Kaplan-Meier method and (d) Comparisons between any two treatment groups was analyzed by log rank tests.
Mice were handled according to the established procedures of the University of Michigan Laboratory Animals Maintenance Manual. To generate tumor xenografts, 2×10^6 UMSCC1 cells were transplanted into the flanks of athymic nude Foxn1^nu mice (Harlan Laboratories). […]
Tumor volume doubling was determined for each xenograft by identifying the earliest day on which it was at least twice as large as on the first day of treatment. […]

In the next series the test system is EGFR. It is filed as in vivo, mice. Conditions: UMSCC1 xenograft, 8 mg/kg intraperitoneally.
The subject of another series is UMSCC74B. Nature of the series: Clonogenic cell survival assay, UMSCC74B. Format: cell-based, human. Conditions: cell permeable peptides, H&N cancer, WT-EGFR. The procedure:
(§1) Clonogenic assays were performed using standard techniques.^34 The fraction surviving each treatment was normalized to the survival of the control cells. Peptide cell survival curves were fitted using the equation SF=(C50)^m/[(C50)^m+C^m], where SF is the surviving fraction, C is the peptide concentration, C50 is the concentration of peptide that produces a 50% cell survival and m is the slope of the sigmoid curve.
(§2) We then assessed colonogenic survival in head and neck (UMSCC1, UMSCC10B, UMSCC74B), lung (A549, H1975, H3255), and HeLa cancer cells. Normal human esophageal squamous epithelial (Het1A) and lung fibroblast (MRC5) cell lines along with EGFR negative CHO cells were selected to study selectivity.

The subject of a further series is Het1A. Nature of the series: Clonogenic cell survival assay, Het1A. Format: cell-based. Conditions: cell permeable peptides, normal human epithelial, WT-EGFR. The procedure: as §1, §2
The subject of a further series is UMSCC10B. Description: Clonogenic cell survival assay, UMSCC10B. It is filed as cell-based, human. Conditions: cell permeable peptides, H&N cancer, WT-EGFR. The procedure:
as §1, §2

In the next series the test system is H3255. Description: Clonogenic cell survival assay, H3255. It is filed as cell-based, human. Particulars: cell permeable peptides; H3255, lung cancer, L858R-EGFR. The procedure:
as §1, §2

For the next series, the target named is T1, HSP90 (Homo sapiens, UniProt P07900).
T1 construct: cell lysates from cancer or normal cells were prepared by 3 freeze-thaw cycles; endogenous in cells; host or cells: UMSCC1, H1975, Het1A, MRC5 (A11); UMSCC1 (A13)
Description: Peptide binding assay (streptavidin pull-down of biotinylated peptide, HSP90 immunoblot). Particulars: UMSCC1 cell lysate; 10, 30 and 100 μg/ml. The procedure: (a) To determine if the lead peptide interacts directly with tumor HSP90, cell lysates from cancer or normal cells were prepared by 3 freeze-thaw cycles and then incubated with 3 μg/ml of specific or non-specific biotin coupled peptides for 2 hours. The peptide was affinity purified using Streptavidin-agarose beads, and bound HSP90 was detected by immunoblotting for HSP90. […] (b) The effect of the treatment with specific and non-specific peptide on HSP90-EGFR interaction was determined by IP of HSP90 followed by IB with EGFR at 24 hours post treatment. […] The increased levels of HSP70 upon GA treatment indicate inhibition of HSP90 activity. (c) Specificity of the peptide treatment compared to GA was evaluated in tumor and normal cells as described in FIG. 3b, by assessing the levels of EGFR and PARP cleavage (marker of apoptotic cell death) at 72 hours post treatment, (d) cell survival was assessed using colony formation assay.
(a) UMSCC1 cell lysate was incubated with three concentrations of specific or non-specific peptide (10, 30 and 100 μg/ml) followed by immunoblotting with anti-HSP90 antibody. […] (b) The effect of EGFR specific peptide on HSP90's ability to bind with ATP was assessed. […] Bound protein was eluted in SDS-PAGE buffer, and the levels were determined by immunoblot analysis. […]

A further series addresses T2, EGFR-HSP90 interaction (Homo sapiens, UniProt P07900).
T2 construct: endogenous in cells; host or cells: UMSCC1, H1975, Het1A, MRC5
Description: EGFR-HSP90 interaction by immunoprecipitation and immunoblotting. Format: cell-based. Conditions: 24-hour exposure; cancer cell lines (UMSCC1, H1975); GA 50 nM as positive control. On the technique in general: In western blotting, separated proteins are transferred to a membrane and probed.

The subject of a further series is MRC5. Nature of the series: Clonogenic cell survival assay, MRC5. Format: cell-based. Conditions: cell permeable peptides; MRC5, normal human fibroblasts, WT-EGFR. The procedure: as §1, §2
The subject of a further series is CHO. Description: Clonogenic cell survival assay, CHO. It is filed as cell-based. Conditions: cell permeable peptides, hamster ovarian. The procedure:
as §1, §2

Another series relates to A549. Nature of the series: Clonogenic cell survival assay, A549. Conditions: cell permeable peptides; A549, lung cancer, WT-EGFR. It is filed as cell-based, human. The procedure:
as §1, §2

Another series has as its system HeLa. Description: Clonogenic cell survival assay, HeLa. Particulars: cell permeable peptides, cervical cancer, WT-EGFR. It is filed as cell-based, human. The procedure:
as §1, §2

The test system of the next series is H1975. Nature of the series: Clonogenic cell survival assay, H1975. It is filed as cell-based, human. Conditions: cell permeable peptides; H1975, lung cancer, T790M-EGFR. The procedure: as §1, §2
A further series has as its system UMSCC1 cells. Nature of the series: Clonogenic cell survival assay, UMSCC1. Format: cell-based, human. The procedure:
as §1, §2

In the case of `COC1=C2C[C@@H](C)C[C@H](OC)[C@H](O)[C@@H](C)/C=C(\C)[C@H](OC(N)=O)[C@@H](OC)/C=C\C=C(/C)C(=O)NC(=CC1=O)C2=O` [Geldanamycin, reference compound], in the series with C57BL/6 mice, the “histological alterations in evaluated organs” value (shortened to “histological alterations”) was “histological evidence of toxicity in eye and liver”.
On to `CC(C)[C@H](NC(=O)[C@H](Cc1c[nH]cn1)NC(=O)[C@@H]1CCCN1C(=O)[C@H](CC(N)=O)NC(=O)[C@H](CC(=O)O)NC(=O)[C@@H](NC(=O)[C@H](CO)NC(=O)[C@H](CCCNC(=N)N)NC(=O)[C@H](CCCNC(=N)N)NC(=O)[C@H](CCCNC(=N)N)NC(=O)[C@H](CCC(N)=O)NC(=O)[C@H](CCCNC(=N)N)NC(=O)[C@H](CCCNC(=N)N)NC(=O)[C@H](CCCCN)NC(=O)[C@H](CCCCN)NC(=O)[C@H](CCCNC(=N)N)NC(=O)CNC(=O)[C@H](Cc1ccc(O)cc1)NC(=O)CCCC[C@@H]1SC[C@@H]2NC(=O)N[C@@H]21)C(C)C)C(=O)N[C@@H](CS)C(=O)O` [Specific Peptide] (Biotin-YGRKKRRQRRRSVDNPHVC-OH; N-terminus and C-terminus assumed), for which, in the series with UMSCC1 xenografts [1], the “time post injection peptide remained detectable in xenografts” value came out at 72 h. Also, the systemic toxicity result in the series with UMSCC1 xenografts [2] (UMSCC1 xenograft mice) is on record as “No systemic toxicity”.
“Biotin-YGRKKRRORRR-NHVPSDVC [Non Specific Peptide]”: the “HSP90 levels in tumor or adjacent skin tissue (immunostaining)” value in the series on EGFR was “not affected”. In addition, the “clonogenic survival (surviving fraction)” value stood at 0.88 ± 0.10 with UMSCC74B; 0.91 ± 0.11 in the series on Het1A; 0.98 ± 0.04 with UMSCC10B; 1.0 ± 0.07 in the series on H3255; 1.04 ± 0.05 with MRC5; 1.12 ± 0.14 in the series on CHO. Further, the “clonogenic survival (surviving fraction)” value was found to be 0.81 ± 0.09 in the series with A549, 0.92 ± 0.08 in the series with HeLa, 0.77 ± 0.17 with H1975 and 1.62 ± 0.04 with UMSCC1 cells. Besides, the “binding of peptide with HSP90 versus peptide concentration” value on HSP90 is “minimal interaction”. In addition, at EGFR-HSP90 interaction, the EGFR-HSP90 interaction result was “no effect”. Moreover, in the series with UMSCC1 xenografts [2] (UMSCC1 xenografts, single dose), the “median tumor doubling time” value was found to be 5.5 days.
Regarding DEAYVMASVDNPHVCRLLGIC [Peptide 5], in the series with UMSCC1 cells (clonogenic survival of UMSCC1 cells, synthetic peptides delivered using Chariot), the “Survival Fraction” value is listed as 1 ± 0.14.
Take NHVPSDVC [Peptide 8]: in the series with C57BL/6 mice, the “complete blood counts and liver cytosolic enzymes (AST, ALT)” value is reported as “not significantly different from controls”; the “histological alterations” value is given as “no histological alterations”.
Turning to SVDNPHVC [Peptide 2], in the series on C57BL/6 mice, the “complete blood counts and liver cytosolic enzymes (AST, ALT)” value is recorded as “not significantly different from controls”; the “histological alterations” value is “no histological alterations”.
